Data set [1] relates to JJN3. Nature of the data set: Six-day cell proliferation assay (CellTiter-Glo). The class given is cell-based. The conditions noted are these: Homo sapiens, JJN-3, 144 h; JJN3 (Plasma cell leukemia), 6 days; read-out: Average day 6 gIC50. The method, then:
(§1) Six-day cell proliferation assay
(§2) Optimal cell seeding density was determined empirically for each cell lines by examining the gro wth of a wide ran ge o f seedin g densities in a 3 84-well formatto identify conditio ns that permitted maximal and continued proliferation for 6 days. Cells were plat ed in duplicate plates 24 hours before treatment with a 20- point two-fold dilution series of compound or 0.15%
(§3) DMSO. Plates were incubated for 6 da ys at 37°C in 5% CO2. Cells were th en l ysed with CellTiter-Glo (CTG) (Pr omega) and chemiluminescent sign al was detected with an appropriat e microplate reader. In addition, an untreated plate of cells was harvested at the time of compound addition (T0) to quantif y the initial cell densit y. CTG values obtained after 6 days of treatment were expressed as a percent of the T0 value and plotted against compound concentration. […]
(§4) Supplementary Table S 3. […] A p anel […]
(§5) of cell lines was treated with EZM2302fo r 6da ys in a proliferation ass a y. Cell densit y (as assessed b y CellTiter-Gl o) at da y 0 was compared to day 6 to det ermine growth IC 50 values , calculated us i n g a f our parameter dose response equation.
(§6) Cell Type According to Cell Type Category Cell L ine Name gIC50 Average day 6 Standard Replicates
(§7) Supplier Modifier gIC50 (nM) Deviation […]
(§8) Burkitt lymphoma lymphoma NC-37 > 7331 0 2 […]
Background: In ATP-based viability assays light output follows the ATP content of the culture.

The test system of data set [2] is ARH-77. Nature of the data set: Six-day cell proliferation assay (CellTiter-Glo). The class given is cell-based. The following applies: Homo sapiens, 144 h; ARH-77 (EBV+ lymphoblastoid), 6 days; read-out: Average day 6 gIC50. The method, then:
as §1, §2, §3, §4, §5, §6, §7, §8

Data set [3] deals with LP-1. In words: Six-day cell proliferation assay (CellTiter-Glo). The data set is classed as cell-based. The conditions noted are these: Homo sapiens, 144 h; LP-1 (MM), 6 days; read-out: Average day 6 gIC50. The procedure: as §1, §2, §3, §4, §5, §6, §7, §8
Data set [4] deals with AMO-1. In words: Six-day cell proliferation assay (CellTiter-Glo). The data set is classed as cell-based. The following applies: Homo sapiens, AMO1, 144 h; AMO-1 (Plasmacytoma), 6 days; read-out: Average day 6 gIC50. The method, then: as §1, §2, §3, §4, §5, §6, §7, §8
For data set [5], the system named is KMS-12BM. Nature of the data set: Six-day cell proliferation assay (CellTiter-Glo). The data set is classed as cell-based. The conditions noted are these: Homo sapiens, 144 h; KMS-12BM (MM, Bone marrow), 6 days; read-out: Average day 6 gIC50. The procedure: as §1, §2, §3, §4, §5, §6, §7, §8
Data set [6] has as its system MV-4-11. In words: Six-day cell proliferation assay (CellTiter-Glo). The class given is cell-based. The conditions noted are these: Homo sapiens, MV4-11, 144 h; MV-4-11 (AML), 6 days; read-out: Average day 6 gIC50. The procedure:
as §1, §2, §3, §4, §5, §6, §7, §8

In data set [7] the test system is EJM. In words: Six-day cell proliferation assay (CellTiter-Glo). The class given is cell-based. The following applies: Homo sapiens, 144 h; EJM (MM), 6 days; read-out: Average day 6 gIC50. The procedure: as §1, §2, §3, §4, §5, §6, §7, §8
The subject of data set [8] is HT. Nature of the data set: Six-day cell proliferation assay (CellTiter-Glo). The conditions noted are these: Homo sapiens, 144 h; HT (GCB DLBCL), 6 days; read-out: Average day 6 gIC50. The class given is cell-based. The method, then: as §1, §2, §3, §4, §5, §6, §7, §8
The nature of data set [9]: Hepatocyte stability. The class given is in vitro ADME. The conditions noted are these: 1 µM. The procedure:
Hepatocyte stability, plasma protein binding and cytochrome P450 assays were performed using standard procedures. Details can be found in Supplementary Methods. […]
where K I and K J are th e inhibition constants for I and J , respectivel y, and alpha is a constant describing the effect of one inhibitor on the binding of another inhibitor 8.
Reversibility experiments were performed in assay buffer lacking bovine skin gelatin. CARM1 […]
mixture was purified using pre-equilibrated 0.5 mL Zeba (7MWCO) spin columns (Thermo Fisher) following manufacturer ’s instructions. CARM1 was diluted to 0.5 nM in an assay reaction mixture using previously described conditions and activity was measured over 2 hours.
Proteins were kept at 4 °C for further activit y testing. Similar results were also obtained when […]
Methyltransf erase cros s screening panel […]
gen eral p rocedu res f rom Knutson et al.9
In cell w estern assay f or detection of asymmetric di -methyl PABP1 an d DNA content RKO cells (ATCC) were maintained in growth medium (DMEM/Glutamax medium supplemented with 10% v/v heat inactivated fetal bovine serum and 100 units/mL penicillin-streptom ycin) and cultured at 37 °C under 5% CO2. Cells were seeded in assay medium at a concentration of 30,000 cells per m L to a pol y -D-l ys ine coated 384 well culture plate with 50 µ L per well. […]

As for `CNC[C@@H](O)COc1ccc(Cl)c(-c2nc(-c3c(C)noc3C)c(C)c(N3CC4(CCN(C(=O)OC)CC4)C3)n2)c1` [EZM2302], the IC50 in [1] is above 13 µM; in data set [2], above 4.27 µM; in data set [3], 2.65 µM; in [4] it was above 25.9 µM; in [5] it was above 15.5 µM; in [6] it was above 7.86 µM. For the same compound, the IC50 in data set [7] is above 20.2 µM; in data set [8] it was above 7.33 µM. Further, the “CL in human hepatocytes (scaled)” value in [9] is below 3 mL/min/kg.
